Literature values, collected in patent US20090306081A1, “Solid Dosage Formulations of Hydralazine Compounds and Nitric Oxide Donor Compounds” (priority 2006, published 2009).

## O=[N+]([O-])O[C@H]1CO[C@H]2[C@@H]1OC[C@H]2O[N+](=O)[O-] [Diluted isosorbide dinitrate, 1,4,3,6-dianhydro-D-glucitol-2,5-dinitrate]
Organic solvents such as ethanol, ether and chloroform
  solubility in organic solvents: freely soluble
water
  solubility in water: sparingly soluble
